The results in this text go back to patent US6020330A, “Hypolipidemic 1,4-benzothiazepine-1,1-dioxides” (Hoechst Aktiengesellschaft, priority 1997, dated 2000).

The IC50 is the concentration that inhibits the measured activity by half. A high value points to weaker potency in that assay.

Each structure is given as a SMILES string.

This assay concerns the target T1, ileal transporter of the rabbit (RIBAT) (Oryctolagus cuniculus, UniProt Q28727).
T1 construct: contained the total protein-coding region of the RIBAT; expressed in transfected cells; host or cells: CHO cells, stably transfected with pRIBAT8 (pcDNA1neo vector), G418-selected clonal line
T1 sequence (Q28727 1-347): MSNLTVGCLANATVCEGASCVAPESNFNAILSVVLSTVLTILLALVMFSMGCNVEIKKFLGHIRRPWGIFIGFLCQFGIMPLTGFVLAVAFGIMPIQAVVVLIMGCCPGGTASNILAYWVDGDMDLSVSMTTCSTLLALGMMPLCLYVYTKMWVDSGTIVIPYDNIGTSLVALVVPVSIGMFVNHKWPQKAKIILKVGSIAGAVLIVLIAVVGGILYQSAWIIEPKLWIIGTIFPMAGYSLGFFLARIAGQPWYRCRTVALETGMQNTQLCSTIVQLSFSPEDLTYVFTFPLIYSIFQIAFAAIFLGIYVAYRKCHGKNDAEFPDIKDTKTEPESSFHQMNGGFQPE
In words: Inhibition of [24-14C]-taurocholic acid uptake in CHO/pRIBAT8 cells. Format: cell-based. To be noted: 21° C., 30 minutes. An excerpt: These were derivatives of the generally known "Chinese hamster ovary" (CHO) cell line, which on account of incorporated expression plasmids additionally produced sodium-dependent bile acid transporters. The first cell line (CHO/pRIBAT8) was in this case the ileal transporter of the rabbit (RIBAT), the second (CHO/pHIBAT8) the ileal transporter of the human (HIBAT) and the third (CHO/pHLBAT5) the hepatic transporter of the human. All plasmids were based on the standard plasmid pCDNA1neo, which as important elements has a cytomegaloviral promoter for the permanent expression of heterologous genes and a gene for the production of cell resistance against the substance G418.
The starting material for the production of the plasmid for the RIBAT-producing cell line (pRIBAT8) was total RNA of the terminal ileum of the rabbit. […]
For the preparation of the genetically modified cell lines, CHO cells were transfected with DNA from pRIBAT8, pHIBAT8 or pHLBAT5 and cells which developed resistance against the selection substance G418 were selectively additionally cultured by addition of the substance to the cell medium. […] They could thereby be easily differentiated from cells without intact bile acid transporters with the aid of a fluorescence microscope. […]

For the molecule `CCCCC1(CC)CS(=O)(=O)c2cc(O[C@@H]3O[C@H](C(=O)O)[C@@H](O)[C@H](O)[C@H]3O)ccc2C(c2ccccc2)N1` (stereo partly shown) [Example 3], it took 0.07 µM to reach half-maximal inhibition (IC50).
